Series [1] is described as follows: in vitro. The conditions noted are these: SD, HW or BN, rat, plasma.
A short description of the next series: physchem. As to conditions: octan-1-ol/water.
Series [2] in a line: in vitro. The conditions noted are these: human, plasma.
Series [3] in a line: in vitro. As to conditions: Beagle, dog, plasma.

The fraction unbound is the share of the substance not bound to proteins or other matrix. By logD is commonly meant the decadic logarithm of the distribution of all forms, ionised or not, between an organic phase and buffer at a given pH. A low value points to a more hydrophilic compound. On to `O=c1cc(N2CCOCC2)nc2n(Cc3cccc4ccccc34)ccn12`, for which the figures for the unbound share (fraction unbound) at 5 h in the series “in vitro [1]”, in the series “in vitro [2]” (PPB) and in the series “in vitro [3]” were 0.0477, 0.0307 and 0.0676, respectively. Moreover, the log distribution coefficient (logD) in “physchem” (pH 7.4, LogD7.4) is 3.3.

Turning to `CO[C@H]1CN(CCn2c(=O)ccc3ccc(C#N)cc32)CC[C@H]1NCc1cc2c(cn1)OCCO2`, the fraction unbound at 5 h was 0.738 in “in vitro [1]”, 0.483 in “in vitro [2]” (PPB) and 0.569 in the series “in vitro [3]”. Moreover, in the series “physchem” (pH 7.4, LogD7.4), the logD was 0.63.

For the molecule `COc1cc2c(cc1OC)C(=O)C(CC1CCN(Cc3ccccc3)CC1)C2` (configuration not stated) [DONEPEZIL], the free fraction (fraction unbound) at 5 h was 0.339 in “in vitro [1]”, 0.105 in the series “in vitro [2]” (PPB) and 0.613 in the series “in vitro [3]”.

Turning to `CC(C)Oc1cc(Nc2nc3c(cc2F)ncn3[C@@H](CO)c2ccc(F)cn2)n[nH]1`, the values for the fraction unbound at 5 h in the series “in vitro [1]”, in the series “in vitro [2]” (PPB) and in the series “in vitro [3]” were 0.119, 0.051 and 0.249, respectively. The same molecule had a pH-dependent lipophilicity (logD) in the series “physchem” (pH 7.4, LogD7.4) of 2.97.

On to `Cc1cc(Nc2nc(O[C@@H](C)c3ncc(F)cn3)ncc2Cl)[nH]n1`, for which the fraction unbound at 5 h in the series “in vitro [1]” is 0.339; in “in vitro [2]” (PPB), 0.249; in the series “in vitro [3]”, 0.489. This molecule yielded a pH-dependent lipophilicity (logD) in “physchem” (pH 7.4, LogD7.4) of 1.82.

Take `CC[C@@H](Nc1c(Nc2cccc(C(=O)N(C)C)c2O)c(=O)c1=O)c1ccc(C)o1` [NAVARIXIN ANHYDROUS]: the fraction unbound at 5 h is 0.0106 in “in vitro [1]”, 0.0179 in the series “in vitro [2]” (PPB) and 0.089 in “in vitro [3]”. This molecule came in with a logD in the series “physchem” (pH 7.4, LogD7.4) of 2.32.

Take `CC(C)(C)NC(=O)NCCN1CCC(O)(CNC(=O)c2cc(Cl)cc(Cl)c2)CC1`: the unbound share (fraction unbound) at 5 h was 0.232 in “in vitro [1]”, 0.232 in the series “in vitro [2]” (PPB) and 0.36 in “in vitro [3]”.

As to `Cc1cc(Nc2nc(N[C@@H](C)c3ncc(F)cn3)c(C#N)nc2C)n[nH]1`, the results for the unbound share (fraction unbound) at 5 h in the series “in vitro [1]”, in the series “in vitro [2]” (PPB) and in the series “in vitro [3]” were 0.349, 0.304 and 0.454, respectively. Moreover, the logD in the series “physchem” (pH 7.4, LogD7.4) came out at 1.92.

Consider `O=c1[nH]c2ccccc2n1CCCN1CCC(n2c(=O)[nH]c3cc(Cl)ccc32)CC1` [DOMPERIDONE], for which the fraction unbound at 5 h was 0.069 in the series “in vitro [1]”, 0.0335 in the series “in vitro [2]” and 0.0872 in “in vitro [3]”. Moreover, the logD in “physchem” (pH 7.4) is 3.45.

Turning to `O=C(NC12CC3CC(CC(C3)C1)C2)OCCNC1CCCCC1`, the unbound share (fraction unbound) at 5 h was 0.129 in the series “in vitro [1]”, 0.11 in “in vitro [2]” (PPB) and 0.16 in “in vitro [3]”.

On to `CCCn1c(=O)[nH]c(=O)c2[nH]cnc21` [ENPROFYLLINE], for which the fraction unbound at 5 h in “in vitro [1]” is 0.212; in the series “in vitro [2]” (PPB), 0.329; in the series “in vitro [3]”, 0.392.

In the case of `CC(C)(C)S(=O)(=O)CCCN1CCN(CC(=O)NC23CC4CC(CC(C4)C2)C3)CC1`, the fraction unbound at 5 h in the series “in vitro [1]” was 0.309; in “in vitro [2]” (PPB) it was 0.349; in “in vitro [3]”, 0.289.

With `O=C(Cn1c(Cl)cnc(NCC(F)(F)c2ccccn2)c1=O)NCc1ncccc1F` [DPOC-4088], the unbound share (fraction unbound) at 5 h in “in vitro [1]” was 0.208; in “in vitro [2]” (PPB) it was 0.28; in the series “in vitro [3]”, 0.392.

With `N#CC[C@H](C1CCCC1)n1cc(-c2ncnc3[nH]ccc23)cn1` [RUXOLITINIB], the values for the fraction unbound at 5 h in the series “in vitro [1]”, in the series “in vitro [2]” (PPB) and in the series “in vitro [3]” were 0.173, 0.0532 and 0.166, respectively. The molecule also had a log distribution coefficient (logD) in the series “physchem” (pH 7.4, LogD7.4) of 2.55.

Consider `COC(=O)C1=C(C)NC(C)=C(C(=O)OC)C1c1ccccc1[N+](=O)[O-]` [NIFEDIPINE], for which the free fraction (fraction unbound) at 5 h was 0.0023 in the series “in vitro [1]”, 0.0383 in the series “in vitro [2]” and 0.0736 in the series “in vitro [3]”.

On to `CC(C)(C)NC(=O)NCCN1CCOC(CNC(=O)c2cc(Cl)cc(Cl)c2)C1` (configuration not stated), for which the fraction unbound at 5 h in the series “in vitro [1]” is 0.0676; in “in vitro [2]” (PPB), 0.0606; in “in vitro [3]” it was 0.0818.

`CC(C)Oc1cc(-n2cnc3ccc(N[C@@H](CO)c4ccc(F)cn4)nc32)n[nH]1`: the figures for the fraction unbound at 5 h in the series “in vitro [1]”, in the series “in vitro [2]” (PPB) and in “in vitro [3]” were 0.186, 0.0818 and 0.304, respectively. This molecule also returned a logD in the series “physchem” (pH 7.4, LogD7.4) of 2.79.

Turning to `CCOc1noc2cc(OCCC3CCN(c4ccc(C)nn4)CC3)ccc12`, the fraction unbound at 5 h was 0.0015 in “in vitro [1]”, 0.0014 in “in vitro [2]” (PPB) and 0.0031 in “in vitro [3]”.

Turning to `CCNC(=O)Nc1nc2cc(-c3cccnc3)cc(-c3ncccc3F)c2[nH]1`, the fraction unbound at 5 h in the series “in vitro [1]” is 0.028; in “in vitro [2]” (PPB), 0.0136; in “in vitro [3]”, 0.04.

With `CC(C)(C)OC(=O)NC[C@H]1CC[C@H](CNC(=O)c2cc(N3CCC(CCO)CC3)nc3ccccc23)CC1`, the fraction unbound at 5 h in the series “in vitro [1]” was 0.0099; in the series “in vitro [2]” (PPB), 0.007; in “in vitro [3]”, 0.0084.

As for `CCOc1cc2nnc(C(N)=O)c(Nc3ccc(C)cc3F)c2cc1N1CCN(C)CC1`, the fraction unbound at 5 h in “in vitro [1]” was 0.0633; in the series “in vitro [2]” (PPB), 0.016; in “in vitro [3]”, 0.062.

In the case of `Cc1cc(C(C)Nc2ccccc2)c2nc(N3CCOCC3)cc(=O)n2c1` (configuration not stated), the values for the fraction unbound at 5 h in the series “in vitro [1]”, in the series “in vitro [2]” (PPB) and in the series “in vitro [3]” were 0.0467, 0.0532 and 0.0606, respectively.

For `O=C(O)CCn1c2c(c3ccccc31)C[C@H](NS(=O)(=O)c1ccc(F)cc1)CC2` [RAMATROBAN], the unbound share (fraction unbound) at 5 h is 0.0328 in the series “in vitro [1]”, 0.0274 in “in vitro [2]” (PPB) and 0.0437 in “in vitro [3]”.

For `O=C(CN1CCN(CCC2CCOCC2)CC1)NC12CC3CC(CC(C3)C1)C2`, the unbound share (fraction unbound) at 5 h in “in vitro [1]” is 0.392; in the series “in vitro [2]” (PPB) it was 0.529; in “in vitro [3]”, 0.431.

In the case of `CC(C)(C)NC(=O)NCCN1CCC(CNC(=O)c2cc(Cl)cc(Cl)c2)CC1`, the free fraction (fraction unbound) at 5 h in the series “in vitro [1]” is 0.17; in “in vitro [2]” (PPB), 0.11; in “in vitro [3]” it was 0.11.

In the case of `C[C@@H]1C[C@H]2[C@@H]3CCC4=CC(=O)C=C[C@]4(C)[C@@]3(Cl)[C@@H](O)C[C@]2(C)[C@@]1(OC(=O)c1ccco1)C(=O)CCl` [MOMETASONE FUROATE], the free fraction (fraction unbound) at 5 h in “in vitro [1]” was 0.001; in “in vitro [2]” (PPB), 0.0023; in the series “in vitro [3]”, 0.003.

With `C[S+]([O-])Cc1ccc(C(=O)Nc2ccc(OCCOCCO)nc2C(=O)NCC2CCC2)c2ccccc12` (configuration not stated), the unbound share (fraction unbound) at 5 h is 0.0343 in the series “in vitro [1]”, 0.0499 in the series “in vitro [2]” (PPB) and 0.0581 in the series “in vitro [3]”.

Take `COc1ccc2c(C)cc(N[C@H]3CC[C@H](NCc4cn(C)c5ccc(C#N)cc45)C3)nc2c1`: the results for the free fraction (fraction unbound) at 5 h in the series “in vitro [1]”, in “in vitro [2]” (PPB) and in “in vitro [3]” were 0.0146, 0.0139 and 0.0209, respectively.

`Cc1cc(Nc2nc(N[C@@H](C)c3ccc(F)cn3)c(C#N)nc2C)n[nH]1`: the fraction unbound at 5 h in the series “in vitro [1]” is 0.19; in “in vitro [2]” (PPB), 0.173; in “in vitro [3]” it was 0.262.

As for `C[C@H]1CN(c2cc(N(CCO)Cc3cccc4ccccc34)[nH]c(=O)n2)CCO1`, the free fraction (fraction unbound) at 5 h in the series “in vitro [1]” was 0.0948; in the series “in vitro [2]” (PPB), 0.16; in the series “in vitro [3]”, 0.299.

`CC(C)(C)NC(=O)NCCN1CCCC(NC(=O)c2cc(Cl)cc(Cl)c2)C1` (configuration not stated): the fraction unbound at 5 h was 0.0391 in “in vitro [1]”, 0.028 in the series “in vitro [2]” (PPB) and 0.0633 in the series “in vitro [3]”.

Values taken from ChEMBL document CHEMBL3301361, “Experimental in vitro DMPK and physicochemical data on a set of publicly disclosed compounds”.
